From the supplement of paper PMC3621838
± gives the standard deviation of the averaged measurements.

Test system: HEK293 NF-kB-luciferase reporter cells
Test: NF-kB luciferase reporter activity, robust Z-score vs plate median (robust Z-score (log luminescence)); higher = stronger NF-kB reporter activation
Settings: TNF treatment time 8.5 h, transfection time 72 h
Procedure: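 Primary screen of an Ambion Pre-miR miRNA mimic library (miRBase v8.0, 1.6 pmol/well, 384-well, duplicate) reverse-transfected into HEK293 cells stably expressing a 5x NF-kB firefly luciferase reporter. After 72 h the cells were treated with vehicle or TNF (40 ng/mL) for 8.5 h and luminescence was read (BriteLite). Raw luminescence was log-transformed and converted to a robust Z-score per plate: (x - plate median)/plate MAD. Sequence given is the mature miRNA strand of the double-stranded mimic.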

| Sequence | NF-kB luciferase reporter activity (TNF 0 ng/mL) | NF-kB luciferase reporter activity (TNF 40 ng/mL) |
| --- | --- | --- |
| AAAAGCUGGGUUGAGAGGGCGAA | -0.418 ± 0.33 | -0.74 ± 0.12 |
| AAAAUGGUUCCCUUUAGAGUGUU | -1.7 ± 0.2 | -2.14 ± 0.057 |
| AAACAAACAUGGUGCACUUCUUU | -1.38 ± 0.64 | -0.235 ± 0.099 |
| AAACCGUUACCAUUACUGAGUUU | 1.13 ± 0.58 | 0.947 ± 0.054 |
| AAAGCGCUUCCCUUCAGAGUGU | 0.00327 ± 0.13 | 0.467 ± 0.04 |
| AAAGCGCUUCCCUUUGCUGGA | -0.603 ± 0.07 | 0.608 ± 0.072 |
| AAAGCGCUUCUCUUUAGAGGA | -0.221 ± 1.4 | 0.82217 ± 0.00059 |
| AAAGUGCAUCCUUUUAGAGGUUU | -0.831 ± 1 | -0.425 ± 0.04 |
| AAAGUGCAUCCUUUUAGAGUGUUAC | -1.8 ± 0.56 | -0.116 ± 0.027 |
| AAAGUGCAUCUUUUUAGAGGAU | -0.977 ± 0.6 | -0.416 ± 0.079 |
| AAAGUGCCUCCUUUUAGAGUGU | -1.14 ± 0.07 | -0.561 ± 0.048 |
| AAAGUGCUGCGACAUUUGAGCGU | -0.434 ± 0.93 | -1.06 ± 0.19 |
| AAAGUGCUUCCCUUUGGACUGU | -1.29 ± 0.15 | -0.57 ± 0.16 |
| AAAGUGCUUCCUUUUAGAGGC | -1.48 ± 0.11 | -0.83 ± 0.031 |
| AAAGUGCUUCCUUUUAGAGGG | -1.32 ± 0.33 | -0.578 ± 0.11 |
| AAAGUGCUUCCUUUUAGAGGGUU | -1.51 ± 0.46 | -0.653 ± 0.033 |
| AAAGUGCUUCCUUUUUGAGGG | -1.7 ± 0.2 | -0.497 ± 0.23 |
| AAAGUGCUUCUCUUUGGUGGGUU | -1.14 ± 0.07 | -0.144 ± 0.11 |
| AACACACCUGGUUAACCUCUUU | -1.14 ± 0.07 | 0.254 ± 0.15 |
| AACAUUCAUUGUUGUCGGUGGGUU | 0.371 ± 0.31 | -0.631 ± 0.082 |
| AACGCACUUCCCUUUAGAGUGU | 0.317 ± 0.45 | 0.826 ± 0.073 |
| AACGCGCUUCCCUAUAGAGGG | -0.412 ± 0.44 | 0.629 ± 0.15 |
| AACUGGCCCUCAAAGUCCCGCUUU | 1.11 ± 0.46 | -0.934 ± 0.19 |
| AACUGGCCUACAAAGUCCCAG | 0.721 ± 0.19 | -1.18 ± 0.17 |

| Sequence | NF-kB luciferase reporter activity (TNF 0 ng/mL) | NF-kB luciferase reporter activity (TNF 40 ng/mL) |
| --- | --- | --- |
| AAGUGCUGUCAUAGCUGAGGUC | -0.706 ± 0.31 | -0.185 ± 0.21 |
| AAGUGCUUCCUUUUAGAGGGUU | -1.7 ± 0.2 | -1.29 ± 0.042 |
| AAUAAUACAUGGUUGAUCUUU | -0.785 ± 0.09 | 0.0536 ± 0.043 |
| AAUAUAACACAGAUGGCCUGU | 0.148 ± 0.35 | 0.874 ± 0.29 |
| AAUCAUACACGGUUGACCUAUU | 0 | -0.0786 ± 0.0065 |
| AAUCAUACAGGGACAUCCAGUU | -0.326 ± 0.46 | 0.117 ± 0.12 |
| AAUCCUUGGAACCUAGGUGUGAGU | 0.598 ± 0.14 | 0.0708 ± 0.057 |
| AAUCCUUUGUCCCUGGGUGAGA | 0.375 ± 0.22 | 0.638 ± 0.062 |
| AAUCGUACAGGGUCAUCCACUU | -0.187 ± 0.52 | 0.638 ± 0.17 |
| AAUUGCACUUUAGCAAUGGUGA | 0.232 ± 0.073 | -0.707 ± 0.14 |
| ACAAAGUGCUUCCCUUUAGAGU | -1.29 ± 0.15 | -0.471 ± 0.097 |
| ACAAAGUGCUUCCCUUUAGAGUGU | -0.845 ± 0.78 | -0.799 ± 0.018 |
| ACAUAGAGGAAAUUCCACGUUU | 0.113 ± 0.85 | -0.459 ± 0.0079 |
| ACUAGACUGAAGCUCCUUGAGG | -0.0115 ± 0.13 | 0.7434 ± 0.0017 |
| ACUCAAAAUGGGGGCGCUUUCC | -0.706 ± 0.31 | 0.907 ± 0.14 |
| ACUGCCCUAAGUGCUCCUUCU | 2.18 ± 0.41 | 0.608 ± 0.041 |
| ACUUCACCUGGUCCACUAGCCGU | 0.123 ± 0.3 | 0.86 ± 0.097 |
| ACUUUAACAUGGAAGUGCUUUCU | -0.37 ± 0.4 | 0.272 ± 0.026 |
| AGACCCUGGUCUGCACUCUAU | 0.885 ± 0.42 | 0.7 ± 0.065 |
| AGAGGCUGGCCGUGAUGAAUUC | 0.912 ± 0.72 | -1.96 ± 0.079 |
| AGAGGUAGUAGGUUGCAUAGU | -0.2 ± 0.023 | -1.24 ± 0.038 |
| AGAGGUAUAGGGCAUGGGAAAA | -0.25 ± 0.57 | -1.06 ± 0.24 |
| AGAUCGACCGUGUUAUAUUCGC | 0.225 ± 0.32 | -0.0562 ± 0.026 |
| AGCUCGGUCUGAGGCCCCUCAG | 1.38 ± 0.13 | -1.1 ± 0.24 |

| Sequence | NF-kB luciferase reporter activity (TNF 0 ng/mL) | NF-kB luciferase reporter activity (TNF 40 ng/mL) |
| --- | --- | --- |
| AGGACCUGCGGGACAAGAUUCUU | -0.175 ± 0.95 | 1.11 ± 0.19 |
| AGGGCCCCCCCUCAAUCCUGU | 1.69 ± 0.94 | 0.259 ± 0.1 |
| AGGUUACCCGAGCAACUUUGCA | 0.305 ± 0.58 | -0.0618 ± 0.016 |
| AGUGACAUCACAUAUACGGCAGC | -1.06 ± 0.48 | -2.733 ± 0.0029 |
| AGUGGGGAACCCUUCCAUGAGGA | -0.516 ± 0.47 | -2.85 ± 0.1 |
| AUAAGACGAGCAAAAAGCUUGU | -0.187 ± 0.52 | -1.62 ± 0.032 |
| AUCACACAAAGGCAACUUUUGU | -0.634 ± 0.41 | -0.131 ± 0.049 |
| AUCAGCAAACAUUUAUUGUGUG | -0.389 ± 0.14 | -0.5 ± 0.044 |
| AUCAUAGAGGAAAAUCCACGU | -0.604 ± 0.17 | -0.743 ± 0.14 |
| AUCAUAGAGGAAAAUCCAUGUU | -0.92 ± 0.38 | -1.03 ± 0.066 |
| AUCAUGAUGGGCUCCUCGGUGU | -0.346 ± 1.1 | -0.71 ± 0.099 |
| AUCCUUGCUAUCUGGGUGCUA | -0.588 ± 0.71 | 0.413 ± 0.069 |
| AUCGGGAAUGUCGUGUCCGCC | 1.11 ± 0.67 | 0.676 ± 0.033 |
| AUCGUGCAUCCCUUUAGAGUGUU | 4.42 ± 0.37 | 0.437 ± 0.046 |
| AUCGUGCAUCCUUUUAGAGUGU | 4.81 ± 0.46 | 0.331 ± 0.0088 |
| AUGCACCUGGGCAAGGAUUCUG | -0.197 ± 0.13 | 1.14 ± 0.15 |
| AUUACAUGGCCAAUCUC | 0.0633 ± 0.4 | 0.754 ± 0.24 |
| AUUCCUAGAAAUUGUUCAUA | 0.0899 ± 0.13 | 0.855 ± 0.032 |
| AUUCUGCAUUUUUAGCAAGU | 3.61 ± 0.35 | -0.325 ± 0.13 |
| AUUGACACUUCUGUGAGUAG | -0.231 ± 0.69 | -0.474 ± 0.021 |
| CAAAGCGCUCCCCUUUAGAGGU | 0 | 0.254 ± 0.098 |
| CAAAGCGCUUCCCUUUGGAGC | 0.207 ± 0.18 | 0.305 ± 0.0055 |
| CAAAGCGCUUCUCUUUAGAGUG | -0.207 ± 0.29 | 0.143 ± 0.13 |
